Test: gradient 5% acetonitrile 3 min, to 50% in 2 min, to 85% in 15 min, held 3 min, 100 µL/min
Conditions: column: Zorbax Extend-C18 2.1 x 50 mm; eluents: water / acetonitrile, 0.1% formic acid
Outline: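 Mixtures of ~100 pure standards were chromatographed on a Zorbax Extend-C18 column (2.1 × 50 mm, 1.8 μm) at 100 μL/min using water and acetonitrile, each with 0.1% formic acid. Detection used a quadrupole time-of-flight mass spectrometer in positive and negative ionization mode, and data collection spanned 3 months. Retention time was obtained from adduct peaks picked computationally and each checked manually.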

| RP-LC retention time [s] | Compound |
| --- | --- |
| 574 | CN(C)[C@@H]1CN(Cc2ccc(Br)o2)CC[C@@H]1CNC(=O)C1CC1 |
| 1020 | COc1ccc(N2C(=O)C3N=NN(Cc4nc(-c5ccc(Br)cc5)no4)C3C2=O)cc1 (configuration not stated) |
| 714 | CCn1ncc(C(=O)N2CC(n3cc(COc4ccc(F)cc4)nn3)C2)c1C |
| 778 | O=C(NCCc1ccccc1)Nc1cnn(-c2ncc(N3CCCC3)cn2)c1 |
| 881 | CCC(=O)N1c2ccc(S(=O)(=O)CCC(=O)N3CCCc4ccccc43)cc2CC1C (configuration not stated) |
| 631 | CCOC(=O)N1CCC(NC(=O)c2nc(-c3cnccn3)no2)CC1 |
| 1200 | CCc1noc(-c2ccc(SCC(=O)N3CCCCC3C)nc2)n1 (configuration not stated) |
| 853 | Cc1nn2c(CNS(=O)(=O)c3ccccc3Cl)c(-c3ccccc3)nc2s1 |
| 1190 | COc1ccccc1Cc1nc(-c2ccccc2)nn(C2OC(COC(C)=O)C(OC(C)=O)C(OC(C)=O)C2OC(C)=O)c1=S (configuration not stated) |
| 706 | CN(C1CCc2nn(CC3CC3)c(=O)n2CC1)S(=O)(=O)c1ccccc1F (configuration not stated) |
| 580 | CN(C)C(=O)CN1CCN(c2cc(C(=O)O)c3cc(NC(=O)c4ccccc4F)ccc3n2)CC1 |
| 625 | O=C(Nc1ccccc1Cl)N1CCN(c2cnn3cnnc3c2)CC1 |
| 599 | COc1ccc(-c2nc(Cn3ccnc3)no2)cc1 |
| 888 | Cc1ccc(OCC(=O)Nc2ccc(-c3nc(-c4cc(C)ccc4C)co3)cc2)cc1 |
| 906 | O=C([C@@H]1C[C@H](F)CN1S(=O)(=O)c1cc(F)ccc1F)N1CCc2ccccc2C1 |
| 1110 | Cn1nc(-c2nnc(-c3ccccc3)o2)c2c1CCN(S(=O)(=O)c1ccc3c(c1)CCCC3)C2 |
| 665 | Cc1nc(-c2csc(S(=O)(=O)N3CCCC(C(=O)NCCN4CCCCCC4)C3)c2)no1 (configuration not stated) |
| 863 | COc1ccccc1-c1noc(CCn2nc(-c3ccc(F)cc3)ccc2=O)n1 |
| 598 | COc1ccc(-c2nc(NCCN3CCCCC3C)c3ccccc3n2)cc1 (configuration not stated) |
| 984 | CC(C)S(=O)(=O)N1CC(Oc2ccccc2-c2nc(C3CC3)no2)C1 |
| 691 | CCN(CC)C(=O)c1ccc2c(c1)N(CC(=O)N1CCCCC1)C(=O)CO2 |
| 755 | O=C(c1ccc([N+](=O)[O-])o1)N1CCN(Cc2nnnn2-c2ccc(F)cc2)CC1 |

| RP-LC retention time [s] | Compound |
| --- | --- |
| 750 | Cc1ccccc1Nc1cc(C)n2c(=O)n(Cc3cccnc3)nc2n1 |
| 830 | O=C(c1ccc(F)c(F)c1)N1CCC2(CC1)NC(=O)N(Cc1ccc(F)cc1)C2=O |
| 700 | Cc1ccc(NS(=O)(=O)c2cc3n(c2)CCN(C)C3=O)cc1 |
| 578 | CN1CCN(CCNC(=O)Cn2c(=O)c3cccn3c3ccc(F)cc32)CC1 |
| 837 | Cc1cccc(-c2noc(-c3cc(N4CCN(C)CC4)nc4ccccc34)n2)c1 |
| 610 | c1ccc(CNc2cc(-n3ccnc3)ncn2)cc1 |
| 888 | COc1ccc2[nH]c3c(c2c1)CCN1C(=O)N(CCc2ccc(OC)c(OC)c2)C(=O)C31C (configuration not stated) |
| 1040 | Cc1ccc(S(=O)(=O)N2CC(=O)N(CCC(C)C)C(C)(C(=O)NCc3ccccc3)C2)cc1 (configuration not stated) |
| 1140 | O=C(Nc1ccc(Br)cc1)C1CCCN(c2nccnc2Oc2ccccc2)C1 (configuration not stated) |
| 704 | CNC(=O)c1cc(N2CCOCC2)nc2c(C)cccc12 |
| 715 | Cc1noc(C2CN(C(=O)Nc3cccc(C)c3C)CC23CCOCC3)n1 (configuration not stated) |
| 693 | CC(=O)N1CCc2cc(N3CC(C(=O)NCc4cccc(C)c4)CC3=O)ccc21 (configuration not stated) |
| 1010 | CCOC(=O)c1nc(N(C)c2cc(C)ccc2C)c2ccccc2n1 |
| 627 | O=C(COc1ccc(Cl)cc1)Nc1ccc(-c2cn3c(n2)SCC3)cc1 |
| 757 | COc1cccc(CNC(=O)C2CCN(S(=O)(=O)c3ccc4c(c3)NC(=O)C(C)O4)CC2)c1 (configuration not stated) |
| 639 | CC(C(=O)NCCCN1CCN(C2CCCCC2)CC1)n1c(=O)c(C(F)(F)F)nc2ccccc21 (configuration not stated) |
| 792 | CCn1c(=O)c2ccn(CC(=O)Nc3cc(C)cc(C)c3)c2n(CC)c1=O |
| 586 | O=C(c1ccc(N2CCOCC2)nn1)N1CCN(c2ncccn2)CC1 |
| 596 | COc1ccccc1C(=O)N1CCC(c2cc3n(n2)CCCNC3=O)CC1 |
| 693 | CCN(CC)c1nc2cc(C(=O)N3CCN(c4ccccn4)CC3)ccc2c(=O)n1-c1ccccc1 |
| 581 | Cc1cc(=O)n(CC(=O)Nc2ccccc2F)c(N)n1 |
| 605 | Cc1nnc2n1CCN(C(=O)c1nn(C)c3ccccc13)C2 |

| RP-LC retention time [s] | Compound |
| --- | --- |
| 744 | COC(=O)c1ccc2c(=O)n(-c3cccc(Cl)c3)c(N3CCN(c4ccccn4)CC3)nc2c1 |
| 759 | COc1nccnc1N1CCC(NS(=O)(=O)c2ccc(C)cc2)C1 (configuration not stated) |
| 966 | CCCCn1cc(S(=O)(=O)Nc2ccc(F)c(F)c2)c2cccnc21 |
| 871 | CC1=C(c2ccc(Cl)cc2)S(=O)(=O)N=C1N1CCCN(C(=O)NC(C)(C)C)CC1 |
| 638 | CCCNC(=O)CC1=C2CCCCC2N(C)C1=O (configuration not stated) |
| 586 | OC[C@@H]1CN(Cc2cn[nH]c2-c2ccc(F)cc2)C[C@H]1c1ccccn1 |
| 629 | Cc1nc2cc(NC(=O)c3cn(C)nn3)ccc2s1 |
| 589 | C/C=C1/[C@H]2C=C(C)C[C@]1(N)c1ccc(=O)[nH]c1C2 |
| 1020 | CCC1CN(C(=O)Nc2ccccc2)c2ccccc2O1 (configuration not stated) |
| 780 | COc1ccc2c(c1)CC(NC(=O)NCc1ccc(OC)cc1OC)CO2 (configuration not stated) |
| 714 | O=C(CCc1cccc2[nH]ccc12)NCc1ccc(N2CCOCC2)cc1 |
| 688 | CC1CCN(CC2CCN(S(=O)(=O)c3ccc(F)c(Cl)c3)CC2)CC1 |
| 1030 | Cc1cccc(NC(=O)C2CCCN(S(=O)(=O)N3CCC(C)CC3)C2)c1C (configuration not stated) |
| 725 | COc1ccc(NC(=O)N2CCC(n3c(-c4ccoc4)nc4cccnc43)C2)cc1F (configuration not stated) |
| 606 | O=C(CCS(=O)(=O)c1ccccc1)N1CC(c2nc(-c3cnccn3)no2)C1 |
| 638 | N#Cc1ccc(-c2nc(-c3ccc4c(c3)ncn4CCN3CCCC3)no2)cc1 |
| 586 | Cc1ccc(-c2nc3cnccn3c2NCCC(=O)NC(C)c2ccccn2)cc1 (configuration not stated) |
| 1380 | COc1ccc(-n2c(=O)c(C(=O)NC3CCCCCC3)c(O)c3cccnc32)cc1 |
| 890 | CCC(C)NC(=O)CCn1c(=O)c2ccccc2n2c(=O)n(Cc3ccc(F)cc3)nc12 (configuration not stated) |
| 591 | CC(C)COc1cc(=O)n2c(c1C(=O)N1CCN(c3ccccn3)CC1)CCCCC2 |
| 1230 | Cc1ccc(S(=O)(=O)N2CCCC2c2nc(-c3cccc(F)c3)no2)cc1Cl (configuration not stated) |
| 651 | Cc1cc(C)c2c(N3CCOCC3)nc(C(=O)NCc3ccc(F)cc3F)nc2n1 |

| RP-LC retention time [s] | Compound |
| --- | --- |
| 1130 | CC(C)n1c(=O)c2ccccc2n(Cc2nc(-c3ccccc3Cl)no2)c1=O |
| 643 | Cc1nnc(SCC(=O)NCc2ccccc2)c2nn(-c3ccccc3)c(C)c12 |
| 986 | COc1ccc2cccc(NC(=O)c3c[nH]c4ccccc34)c2n1 |
| 1180 | CCOc1ccc(S(=O)(=O)N2CCC(c3noc(-c4ccccc4C)n3)CC2)cc1 |
| 651 | COc1ccccc1C(CNC(=O)c1cc(=O)c2cc(C)c(C)cc2o1)N(C)C (configuration not stated) |
| 1300 | COc1ccc(Cl)cc1NC(=O)c1cc(C)n2nc(-c3ccco3)cc2n1 |
| 623 | CCn1c(N2CCN(C(=O)Nc3cc(OC)c(OC)c(OC)c3)CC2)nc2ccccc21 |
| 628 | O=C(CCCCCCC(=O)Nc1ccc(F)cc1)NO |
| 919 | O=C(COc1ccccc1)Nc1cnc(N2CCCCC2)nc1 |
| 1170 | CCn1cc(-c2nc(C(=O)Nc3cc(OC)ccc3OC)cs2)c2cccnc21 |
| 859 | COc1ccccc1NC(=O)N1CCCC(C)(C(=O)NCc2ccccc2C)C1 (configuration not stated) |
| 1190 | O=C(NCc1ccc(F)cc1F)c1c(O)c2cccnc2n(-c2cccc(F)c2)c1=O |
| 723 | CCCNC(=O)CC1Sc2ncccc2N(CC(C)C)C1=O (configuration not stated) |
| 1070 | COc1ccc(-c2ccc(=O)n(Cc3nc(-c4ccc(Cl)cc4)no3)n2)cc1 |
| 943 | COc1cccc(-c2nc(C3CC(=O)N(c4ccccc4)C3)no2)c1 (configuration not stated) |
| 625 | Cc1ccc(S(=O)(=O)Nc2ccncc2)c(C)c1N(C)S(=O)(=O)c1ccc(F)cc1 |
| 605 | CC(CCNC(=O)c1nnc(-c2ccc(S(=O)(=O)N3CCOCC3)cc2)o1)N1CCCCCC1 (configuration not stated) |
| 764 | COc1ccc(NC(=O)N2C[C@@H]3C[C@H]2C[C@@H]3NS(=O)(=O)c2ccccc2)c(C)c1 |
| 920 | CCOc1ccc(CCNC(=O)C2CCCN(C(=O)c3cc(C)cc(C)c3)C2)cc1OCC (configuration not stated) |

| Compound | RP-LC retention time [s] |
| --- | --- |
| CCN(CC)C(=O)c1ccc2c(c1)N(CC(=O)NCCOC)C(=O)C1CCCCN21 (configuration not stated) | 688 |
| CN(C)c1nc2cc(C(=O)N3CCC4(CC3)OCCO4)sc2n1-c1ccccc1 | 647 |

Reference: the METLIN SMRT retention time set (Domingo-Almenara et al. 2019)
